Results: patent US8134006B2, “Dialkylphenyl compounds having β2 adrenergic receptor agonist and muscarinic receptor antagonist activity” (Theravance, Inc., priority 2006, dated 2012)

Key:
[1] = tested on: acetylcholine or histamine bronchoconstriction; experiment: Plethysmograph guinea pig assay for bronchoprotective efficacy and duration; details: doses ranging from 3 μg/mL to 300 μg/mL, inhalation
Protocol: In this assay, the bronchoprotective efficacy and duration of test compounds was determined using a guinea pig assay.
Groups of 6 male guinea pigs (Duncan-Hartley (HsdPoc:DH) Harlan, Madison, Wis.) weighing between 250 and 350 g were individually identified by cage cards. Throughout the study, animals were allowed access to food and water ad libitum. Test compounds were administered via inhalation over 10 minutes in a whole-body exposure dosing chamber (R&S Molds, San Carlos, Calif.). The dosing chambers were arranged so that an aerosol was simultaneously delivered to 6 individual chambers from a central manifold. Guinea pigs were exposed to an aerosol of a test compound or vehicle (WFI). […] The gas flow through the nebulizer at this operating pressure was approximately 3 L per minute. […] This value was measured gravimetrically by comparing pre- and post-nebulization weights of the filled nebulizer. […]
The pulmonary evaluation was initiated after determining that baseline values were within the range of 0.3 to 0.9 mL per cm H2O for compliance and within the range of 0.1 to 0.199 cm H2O per mL per second for resistance. […] The changes in volume over time that occurred within the plethysmograph with each breath were measured via a Buxco pressure transducer. By integrating this signal over time, a measurement of flow was calculated for each breth. […]

[2] = tested on: bronchoconstriction; experiment: Einthoven assay, duration of bronchoprotection; details: inhalation
Protocol: (§1) In this assay, the bronchoprotective efficacy and duration of test compounds were determined using guinea pigs. […] In this assay, changes in ventilation pressure serve as a surrogate measure of airway resistance. Following pre-treatment with a test compound, muscarinic antagonist potency was determined using bronchoconstrictor dose-response curves to intravenous methacholine in the presence of propranolol. Similarly, β2 agonist bronchoprotective potency was determined using histamine. Combined bronchoprotective potency was determined using methacholine in the absence of propranolol.
(§2) The assay was conducted using male Duncan-Hartley guinea pigs (Harlan, Indianapolis, Ind.), weighing between 250 and 400 g. A test compound or vehicle (i.e., sterile water) was dosed by inhalation (IH) over a 10 minute time period in a whole body exposure dosing chamber (R+S Molds, San Carlos, Calif.) using 5 mL of dosing solution. […] Pulmonary function was evaluated at various time points after inhalation dosing.
(§3) The trachea was then dissected free and cannulated with a 14G needle (#NE-014, Small Parts, Miami Lakes, Fla.). […] Body temperature was maintained at 37° C. using a heating pad. […] The changes in VP were recorded on a Biopac Windows data collection interface. […] Changes in VP were recorded using the Acknowledge Data Collection Software (Santa Barbara, Calif.). […]
(§4) Change in VP was measured in cm of water. […]

[3] = molecular target: cM5 receptor (UniProt Q5IS53); experiment: Blockade of agonist-mediated calcium release via FLIPR; type: cell-based; details: CHO cells expressing cM5, read-out: Kobs
Protocol: In this functional assay, the functional potency of a test compound as an antagonist of hM1, hM3 and […] receptors was determined by measuring the ability of the test compound to inhibit agonist-mediated increases in intracellular calcium.
CHO cells stably expressing the receptors were seeded into 96-well FLIPR plates the night before the assay was done. Seeded cells were washed twice with FLIPR buffer (10 mM HEPES, pH 7.4, 2 mM calcium chloride, 2.5 mM probenecid in Hank's Buffered Salt Solution (HBSS) without calcium and magnesium) using Cellwash (MTX Labsystems, Inc.) to remove growth media. After washing, each well contained 50 μL of FLIPR buffer. […]
The dose-dependent stimulation of intracellular Ca^2+ release for oxotremorine was determined so that the test compound could be measured against oxotremorine stimulation at an EC90 concentration. […]
The parameters used for the FLIPR were: exposure length of 0.4 seconds, laser strength of 0.5 watts, excitation wavelength of 488 nm, and emission wavelength of 550 nm. Baseline was determined by measuring the change in fluorescence for 10 seconds prior to addition of oxotremorine. Following oxotremorine stimulation, the FLIPR continuously measured the change of fluorescence every 0.5 to 1 second for 1.5 minutes to capture the maximum fluorescence change. […]

[4] = molecular target: T1, human β2 adrenergic receptor (Homo sapiens, UniProt P07550); experiment: Whole-cell cAMP Flashplate assay with lung epithelial cell line (BEAS-2B) endogenously expressing β2 receptor; type: cell-based; details: BEAS-2B cells, compared with full β2 agonist isoproterenol (1.0)
T1 construct: a cell line expressing endogenous levels of the β2 adrenergic receptor; host or cells: BEAS-2B human lung epithelial cell line
Protocol: In this assay, the agonist potency and intrinsic activity of a test compound were determined using a cell line expressing endogenous levels of the β2 adrenergic receptor.
On the day of the assay, cells were rinsed with PBS, lifted by scraping with 5 mM EDTA in PBS, and counted. Cells were pelleted by centrifugation at 1,000 rpm and re-suspended in stimulation buffer pre-warmed to 37° C. at a final concentration of 600,000 cells/mL. Cells were used at a final concentration of 100,000 to 120,000 cells/well in this assay. […] Plates were sealed, incubated over night at 4° C. and counted the next morning in a Topcount scintillation counter (Packard BioScience Co., Meriden, Conn.). […] Data were analyzed by nonlinear regression analysis with the GraphPad Prism Software package (GraphPad Software, Inc., San Diego, Calif.) using the 4-parameter model for sigmoidal dose-response.

[5] = tested on: histamine-induced bronchoconstriction; experiment: Einthoven assay, bronchoprotective efficacy against histamine; details: 1.5 hours post-dose, inhalation
Protocol: as §1, §2, §3, §4

[6] = tested on: methacholine-induced bronchoconstriction; experiment: Einthoven assay, bronchoprotective efficacy against methacholine; details: 1.5 hours post-dose, inhalation
Protocol: as §1, §2, §3, §4

T1 sequence (P07550 whole entry): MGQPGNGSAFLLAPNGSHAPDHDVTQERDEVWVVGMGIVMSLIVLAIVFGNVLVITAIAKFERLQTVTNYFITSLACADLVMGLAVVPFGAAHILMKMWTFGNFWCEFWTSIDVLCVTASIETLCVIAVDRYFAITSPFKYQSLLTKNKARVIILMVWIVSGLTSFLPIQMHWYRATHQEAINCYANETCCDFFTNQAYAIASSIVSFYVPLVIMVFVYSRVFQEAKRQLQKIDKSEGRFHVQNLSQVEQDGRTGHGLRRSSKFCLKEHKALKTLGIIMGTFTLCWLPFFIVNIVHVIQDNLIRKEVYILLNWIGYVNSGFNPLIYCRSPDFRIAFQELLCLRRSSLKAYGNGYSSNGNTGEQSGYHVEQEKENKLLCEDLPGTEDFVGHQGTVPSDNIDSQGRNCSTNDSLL
Sequence of cM5 receptor (Q5IS53 whole entry): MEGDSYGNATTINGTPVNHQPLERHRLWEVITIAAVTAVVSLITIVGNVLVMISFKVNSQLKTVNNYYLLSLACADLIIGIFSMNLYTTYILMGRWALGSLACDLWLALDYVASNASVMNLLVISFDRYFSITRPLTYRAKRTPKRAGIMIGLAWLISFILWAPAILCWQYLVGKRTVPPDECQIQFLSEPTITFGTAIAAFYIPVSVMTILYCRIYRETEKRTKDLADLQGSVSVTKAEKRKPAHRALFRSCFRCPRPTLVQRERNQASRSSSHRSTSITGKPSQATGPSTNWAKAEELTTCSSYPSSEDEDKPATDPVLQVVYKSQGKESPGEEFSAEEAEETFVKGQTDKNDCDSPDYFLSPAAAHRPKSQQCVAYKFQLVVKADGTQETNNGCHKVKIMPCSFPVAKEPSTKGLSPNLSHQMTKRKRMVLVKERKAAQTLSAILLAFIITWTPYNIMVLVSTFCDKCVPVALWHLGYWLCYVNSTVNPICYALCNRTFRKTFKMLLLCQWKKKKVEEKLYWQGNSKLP

O=CNc1cc([C@@H](O)CNCc2ccc(NC(=O)CCN3CCC(OC(=O)Nc4ccccc4-c4ccccc4)CC3)cc2)ccc1O [compound 50]
bronchoprotection at 24 hours post-dose [1]: no significant bronchoprotection

C[N+]1(C)[C@@H]2C[C@@H](OC(=O)C(O)(c3cccs3)c3cccs3)C[C@H]1[C@@H]1O[C@@H]12 [tiotropium, reference compound]
duration of significant bronchoprotection ([2]; 10 μg/mL): greater than 72 hours

Cc1cc(NC(=O)CCN2CCC(OC(=O)Nc3ccccc3-c3ccccc3)CC2)c(C)cc1CNC[C@H](O)c1ccc(O)c(NC=O)c1 [compound IIa, biphenyl-2-ylcarbamic acid 1-[2-(4-{[(R)-2-(3-formylamino-4-hydroxyphenyl)-2-hydroxyethylamino]methyl}-2,5-dimethylphenylcarbamoyl)ethyl]piperidin-4-yl ester]
Ki [3]: < 10 nM | intrinsic activity [4]: greater than 0.3 | duration of significant bronchoprotection ([2]; single sub-maximal dose 100 μg/mL): up to 72 hours | ID50 [5]: less than 50 μg/mL | ID50 [6]: less than 50 μg/mL
